Measurements published in patent US10052320B2, “Substituted quinoxalines as FGFR kinase inhibitors” (ASTEX THERAPEUTICS LIMITED, priority 2011, dated 2018).
Like-named read-outs stand apart in the source and are kept apart here.

Key:
FGFR3 (h) = FGFR3 (h) (Homo sapiens, UniProt P22607); assay: FGFR3 (enzymatic assay), TR-FRET; assay type: biochemical; settings: read-out: FGFR 3 pIC50 (converted)
Experimental: (§1) In a final reaction volume of 30 μL, FGFR3 (h) (40 ng/ml) was incubated with 50 mM HEPES pH 7.5, 6 mM MnCl2, 1 mM DTT, 0.1 mM Na3VO4, 0.01% Triton-X-100, 500 nM Btn-Flt3 and 25 μM ATP in the presence of compound (1% DMSO final). […] Time-Resolved Fluorescence Resonance Energy Transfer (TR-FRET) signal (ex340 nm. Em 620 nm, em 655 nm) was measured afterwards and results are expressed in RFU (Relative Fluorescence Units).

[1] = tested on: Ba/F3-Flt3-transfected cells in the presence of 10 ng/ml murine IL3; assay: Ba/F3-Flt3 (plus IL3) cellular proliferation counterscreen, Alamar Blue; assay type: cell-based; settings: Mus musculus, read-out: BAF3-FLT3 (PLUS IL3) 384 well pIC50 (converted)
FGFR2 (h) = FGFR2 (h) (Homo sapiens, UniProt P21802); assay: FGFR2 (enzymatic assay), TR-FRET; assay type: biochemical; settings: read-out: FGFR 2 pIC50 (converted)
Sequence of FGFR2 (h) (P21802 22-821): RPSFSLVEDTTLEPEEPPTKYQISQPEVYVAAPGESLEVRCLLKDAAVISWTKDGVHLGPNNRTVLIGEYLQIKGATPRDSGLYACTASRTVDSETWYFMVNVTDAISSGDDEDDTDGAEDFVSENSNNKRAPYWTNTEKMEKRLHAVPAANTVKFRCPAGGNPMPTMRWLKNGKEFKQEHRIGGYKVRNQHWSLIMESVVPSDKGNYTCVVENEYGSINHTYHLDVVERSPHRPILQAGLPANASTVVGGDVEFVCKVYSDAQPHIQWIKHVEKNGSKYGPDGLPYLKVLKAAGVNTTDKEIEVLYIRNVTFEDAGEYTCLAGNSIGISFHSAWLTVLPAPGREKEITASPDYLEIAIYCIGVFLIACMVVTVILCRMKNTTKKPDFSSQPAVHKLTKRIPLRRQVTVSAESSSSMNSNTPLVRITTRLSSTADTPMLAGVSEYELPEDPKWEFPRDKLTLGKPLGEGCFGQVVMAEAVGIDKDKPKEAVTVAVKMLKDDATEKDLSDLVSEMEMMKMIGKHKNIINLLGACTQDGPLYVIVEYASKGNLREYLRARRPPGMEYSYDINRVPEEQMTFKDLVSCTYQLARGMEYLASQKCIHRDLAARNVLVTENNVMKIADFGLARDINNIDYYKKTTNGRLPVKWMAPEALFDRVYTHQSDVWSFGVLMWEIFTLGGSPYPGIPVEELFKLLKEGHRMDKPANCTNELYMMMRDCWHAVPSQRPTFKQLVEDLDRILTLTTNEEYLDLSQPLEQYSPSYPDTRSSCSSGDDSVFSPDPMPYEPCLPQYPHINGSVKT
Experimental: as §1, with “FGFR2” for “FGFR3”, “(150” for “(40”, “0.4” for “25”, “in” for “in RFU”

[2] = target: Ba/F3-FGFR3-transfected cells (Homo sapiens, UniProt P22607); assay: Ba/F3-FGFR3 (minus IL3) cellular proliferation assay, Alamar Blue; assay type: cell-based; settings: for BAF3-FGFR 3 (MIN IL3) 96 well pIC50: minus IL3, 96 well; for BAF3-FGFR 3 (MIN IL3) 384 well pIC50: minus IL3, 384 well
Sequence of Ba/F3-FGFR3-transfected cells (P22607 whole entry, change not shown): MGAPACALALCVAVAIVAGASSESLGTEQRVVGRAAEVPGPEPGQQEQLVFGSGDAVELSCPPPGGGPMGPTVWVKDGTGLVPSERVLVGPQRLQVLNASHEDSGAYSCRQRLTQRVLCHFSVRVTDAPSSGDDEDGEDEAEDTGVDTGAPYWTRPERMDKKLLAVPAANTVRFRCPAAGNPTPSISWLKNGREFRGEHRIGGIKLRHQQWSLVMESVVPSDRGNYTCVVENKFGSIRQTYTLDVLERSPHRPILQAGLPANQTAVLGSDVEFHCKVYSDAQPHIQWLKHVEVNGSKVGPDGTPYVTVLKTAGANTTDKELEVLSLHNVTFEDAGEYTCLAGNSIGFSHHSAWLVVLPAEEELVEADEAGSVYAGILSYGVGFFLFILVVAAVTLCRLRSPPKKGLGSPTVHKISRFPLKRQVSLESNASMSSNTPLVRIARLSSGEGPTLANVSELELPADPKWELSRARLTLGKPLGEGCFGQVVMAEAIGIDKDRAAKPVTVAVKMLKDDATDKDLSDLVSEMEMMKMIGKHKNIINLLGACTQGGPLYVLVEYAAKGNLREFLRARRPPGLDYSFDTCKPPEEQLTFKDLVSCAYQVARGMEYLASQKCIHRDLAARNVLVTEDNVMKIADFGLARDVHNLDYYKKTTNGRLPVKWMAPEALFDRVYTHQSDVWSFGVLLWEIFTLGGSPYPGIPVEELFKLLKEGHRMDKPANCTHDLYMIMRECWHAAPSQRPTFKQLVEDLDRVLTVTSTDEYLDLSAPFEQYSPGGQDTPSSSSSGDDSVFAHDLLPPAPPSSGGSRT
Experimental: Ba/F3-FGFR3 (Minus IL3 or Plus IL3) (Cellular Proliferation Assay)
Cells were put in an incubator at 37° C. and 5% CO2. After 24 hours, 10 μl of Alamar Blue solution (0.5 mM K3Fe(CN)6, 0.5 mM KaFe(CN)6, 0.15 mM Resazurin and 100 mM Phosphate Buffer) was added to the wells, incubated for 4 hours at 37° C. and 5% CO2 before RFU's (Relative Fluorescence Units) (ex. 540 nm., em. 590 nm.) were measured in a flurorescence plate reader. […]
In a 96 well plate, 180 μl cell culture medium (phenol red free RPMI-1640, 10% FBS, 2 mM L-Glutamine and 50 μg/ml Gentamycin) containing 10000 cells per well of Ba/F3-FGFR3-transfected cells were pipette and 20 μl of compound dilution in DMSO was added. Cells were put in an incubator at 37° C. and 5% CO2. After 24 hours, 40 μl of Alamar Blue solution (0.5 mM K3Fe(CN)6, 0.5 mM KaFe(CN)6, 0.15 mM Resazurin and 100 mM Phosphate Buffer) was added to the wells, incubated for 4 hours at 37° C. and 5% CO2 before RFU's (Relative Fluorescence Units) (ex. 540 nm., em. 590 nm.) were measured in a flurorescence plate reader.

KDR (h) (VEGFR2) = KDR (h) (VEGFR2) (Homo sapiens, UniProt P35968); assay: KDR (VEGFR2) (enzymatic assay), TR-FRET; assay type: biochemical
Sequence of KDR (h) (VEGFR2) (P35968 20-1356): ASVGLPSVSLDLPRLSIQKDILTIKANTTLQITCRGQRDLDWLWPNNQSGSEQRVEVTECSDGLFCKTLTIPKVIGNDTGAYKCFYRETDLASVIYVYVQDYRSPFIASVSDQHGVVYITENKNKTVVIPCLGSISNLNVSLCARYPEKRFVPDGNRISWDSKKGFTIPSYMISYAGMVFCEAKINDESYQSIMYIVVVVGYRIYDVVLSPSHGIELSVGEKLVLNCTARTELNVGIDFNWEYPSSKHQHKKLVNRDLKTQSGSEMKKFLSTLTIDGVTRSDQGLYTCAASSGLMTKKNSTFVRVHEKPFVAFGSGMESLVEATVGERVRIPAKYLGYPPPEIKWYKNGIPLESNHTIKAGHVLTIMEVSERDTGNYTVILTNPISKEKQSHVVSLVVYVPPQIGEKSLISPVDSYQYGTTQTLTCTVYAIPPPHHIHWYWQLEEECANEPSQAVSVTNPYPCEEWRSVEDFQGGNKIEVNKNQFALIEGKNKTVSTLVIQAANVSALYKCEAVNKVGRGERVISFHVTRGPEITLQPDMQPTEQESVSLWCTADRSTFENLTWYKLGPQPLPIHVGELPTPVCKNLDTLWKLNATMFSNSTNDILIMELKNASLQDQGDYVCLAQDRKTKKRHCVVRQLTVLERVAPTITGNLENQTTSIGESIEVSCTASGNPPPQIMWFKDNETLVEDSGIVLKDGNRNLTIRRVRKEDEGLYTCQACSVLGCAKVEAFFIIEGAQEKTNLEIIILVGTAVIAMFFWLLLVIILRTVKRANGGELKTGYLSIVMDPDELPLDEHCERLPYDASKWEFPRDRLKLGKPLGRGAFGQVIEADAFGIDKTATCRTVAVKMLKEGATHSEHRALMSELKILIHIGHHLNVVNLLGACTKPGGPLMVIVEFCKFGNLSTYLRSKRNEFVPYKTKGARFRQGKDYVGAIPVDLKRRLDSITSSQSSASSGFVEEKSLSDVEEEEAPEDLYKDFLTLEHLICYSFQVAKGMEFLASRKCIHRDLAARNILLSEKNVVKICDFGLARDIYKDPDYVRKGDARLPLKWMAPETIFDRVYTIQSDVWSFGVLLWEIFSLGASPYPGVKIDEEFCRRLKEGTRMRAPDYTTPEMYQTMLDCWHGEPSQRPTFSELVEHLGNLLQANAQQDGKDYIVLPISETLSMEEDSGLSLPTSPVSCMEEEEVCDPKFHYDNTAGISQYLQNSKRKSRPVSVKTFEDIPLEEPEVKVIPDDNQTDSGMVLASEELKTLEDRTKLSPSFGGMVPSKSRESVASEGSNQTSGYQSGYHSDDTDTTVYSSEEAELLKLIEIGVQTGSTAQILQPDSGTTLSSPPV
Summary of the method: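 3 μM ATP, 500 nM Btn-Flt3 substrate, 150 ng/ml kinase; HEPES pH 7.5 with MnCl2, DTT, vanadate, Triton; 1% DMSO. 120 min RT. Stop: EDTA + Eu-anti-P-Tyr + SA-XL-665, 60 min RT. Readout TR-FRET ex340/em620, 655 nm, RFU.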

Sequence of FGFR3 (h) (P22607 23-806): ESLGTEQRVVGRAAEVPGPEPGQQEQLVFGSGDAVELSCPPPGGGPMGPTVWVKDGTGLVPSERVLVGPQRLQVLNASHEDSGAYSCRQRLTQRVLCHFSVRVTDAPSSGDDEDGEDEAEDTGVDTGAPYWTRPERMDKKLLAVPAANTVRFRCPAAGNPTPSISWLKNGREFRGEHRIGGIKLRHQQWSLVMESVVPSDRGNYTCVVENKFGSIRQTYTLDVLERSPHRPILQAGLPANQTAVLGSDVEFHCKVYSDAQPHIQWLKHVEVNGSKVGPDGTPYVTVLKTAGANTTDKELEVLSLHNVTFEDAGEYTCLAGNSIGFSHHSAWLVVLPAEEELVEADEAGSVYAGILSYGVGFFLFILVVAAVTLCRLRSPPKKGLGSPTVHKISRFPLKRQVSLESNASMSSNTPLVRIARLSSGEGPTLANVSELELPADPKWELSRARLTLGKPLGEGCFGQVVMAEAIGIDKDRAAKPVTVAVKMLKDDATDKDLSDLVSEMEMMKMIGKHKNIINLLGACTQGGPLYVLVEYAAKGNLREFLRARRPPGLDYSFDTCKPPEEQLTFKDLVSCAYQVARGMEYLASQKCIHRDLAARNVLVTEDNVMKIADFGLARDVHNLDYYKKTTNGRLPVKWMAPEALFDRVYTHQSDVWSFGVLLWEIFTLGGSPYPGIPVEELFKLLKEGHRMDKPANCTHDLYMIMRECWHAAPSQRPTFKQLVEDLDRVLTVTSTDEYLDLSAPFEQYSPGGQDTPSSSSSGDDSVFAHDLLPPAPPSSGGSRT

Row | IC50 (FGFR3 (h)) | melting point | IC50 (FGFR2 (h)) | BAF3-FGFR 3 (MIN IL3) 96 well pIC50 [2] | BAF3-FGFR 3 (MIN IL3) 384 well pIC50 [2] | IC50 (KDR (h) (VEGFR2)) | Structure (SMILES) | IC50 ([1]; plus IL3, 384 well) | IC50 ([1]; plus 10 ng/ml murine IL3)
1 | 36.3 nM | 125 °C | 95.5 nM | 5.77 | ~5.26 | 1380 nM | COc1cc(OC)cc(N(CC2CC2)c2ccc3ncc(-c4ccnc(N5CCN(C)CC5)c4)nc3c2)c1 [Compound 37] | 7940 nM | –
2 | 10.5 nM | 215 °C | 25.7 nM | – | 6.23 | 708 nM | COc1cc(OC)cc(N(CCO)c2ccc3ncc(-n4cnc(CO)c4)nc3c2)c1 [Compound 38] | – | > 10000 nM
3 | 29.5 nM | 166 °C | 81.3 nM | 5.51 | 5.08 | 2950 nM | COc1cc(OC)cc(N(CC2CC2)c2ccc3ncc(-c4c[nH]cn4)nc3c2)c1 [Compound 39] | – | > 10000 nM
4 | 3.8 nM | 190 °C | 13.2 nM | – | 6.25 | 245 nM | COc1cc(OC)cc(N(CCCO)c2ccc3ncc(-c4ccnc(C(=O)N5CCOCC5)c4)nc3c2)c1 [Compound 43] | – | > 10000 nM
5 | 11.2 nM | 64 °C | 11 nM | – | <5 | 302 nM | COc1cc(OC)cc(N(CCCNCC(=O)O)c2ccc3ncc(-c4ccnc(C(=O)NCCCCN)c4)nc3c2)c1 [Compound 44] | – | > 10000 nM
6 | 9.12 nM | 111 °C | 4.07 nM | – | 5.9 | 45.7 nM | COc1cc(OC)cc(N(CCN2CCNCC2)c2ccc3ncc(-c4ccc(N)nc4)nc3c2)c1 [Compound 59] | – | > 10000 nM
7 | 138 nM | 114 °C | 741 nM | <5 | <5 | 6610 nM | COc1cc(OC)cc(N(CC2CC2)c2ccc3ncc(N4CCOCC4)nc3c2)c1 [Compound 63] | > 10000 nM | –
8 | 191 nM | 92 °C | 331 nM | 5.02 | <5 | 5500 nM | COc1cc(OC)cc(N(CC2CC2)c2ccc3ncc(N4CCN(C)CC4)nc3c2)c1 [Compound 64] | > 10000 nM | –
9 | 33.9 nM | 167 °C | 33.9 nM | – | ~6.15 | 229 nM | COc1cc(OC)cc(N(CCN2CCN(C(C)=O)CC2)c2ccc3ncc(-c4ccc(N)nc4)nc3c2)c1 [Compound 68] | – | > 10000 nM
10 | 1.86 nM | 106 °C | 2.63 nM | – | ~6.64 | 22.4 nM | COc1cc(OC)cc(N(CCN)c2ccc3ncc(-c4ccn(C)c4)nc3c2)c1 [Compound 79] | – | > 10000 nM
11 | 2340 nM | 176 °C | > 10000 nM | <5 | <5 | > 10000 nM | COc1cc(OC)cc(N(CC2CC2)c2ccc3ncc(C(=O)N4CCC4)nc3c2)c1 [Compound 93] | – | > 10000 nM
12 | 52.5 nM | 165 °C | 37.2 nM | – | 5.89 | 363 nM | CNc1ccc(-c2cnc3ccc(N(CCCNCC(F)(F)F)c4cc(OC)cc(OC)c4)cc3n2)cn1 [Compound 129] | – | > 10000 nM
13 | 11.2 nM | 161 °C | 8.32 nM | – | 5.2 | 550 nM | COc1cc(OC)cc(N(CCCO)c2ccc3ncc(-c4ccnc(C(=O)NCCCCCN)c4)nc3c2)c1 [Compound 130] | – | > 10000 nM
14 | 5.89 nM | 155 °C | 4.68 nM | – | 6.08 | 200 nM | COc1cc(OC)cc(N(CCCNC(C)C)c2ccc3ncc(-c4ccnc(NC(=O)NC(C)C)c4)nc3c2)c1 [Compound 131] | – | 3630 nM
15 | 50.1 nM | 172 °C | 115 nM | – | <5 | > 1000 nM | COc1cc(OC)cc(N(CCCO)c2ccc3ncc(-c4ccnc(-c5ccnc(Cl)c5)c4)nc3c2)c1 [Compound 133] | – | > 10000 nM
16 | 10.2 nM | 175 °C | 25.7 nM | – | 5.71 | 776 nM | COc1cc(OC)cc(N(CCCO)c2ccc3ncc(-c4ccnc(Cl)c4)nc3c2)c1 [Compound 136] | – | > 10000 nM
17 | 7.41 nM | 155 °C | 25.1 nM | – | 5.85 | 347 nM | COc1cc(OC)cc(N(CCCO)c2ccc3ncc(-c4ccnc(F)c4)nc3c2)c1 [Compound 142] | – | > 10000 nM
18 | 56.2 nM | 128 °C | ~85.1 nM | – | 5.1 | > 1000 nM | COc1cc(OC)cc(N(CCCNCC(F)(F)F)c2ccc3ncc(-c4ccnc(F)c4)nc3c2)c1 [Compound 144] | – | > 10000 nM
19 | 97.7 nM | 130 °C | 166 nM | – | <5 | > 1000 nM | COc1cc(OC)cc(N(CCCNCC(F)(F)F)c2ccc3ncc(-c4ccnc(Cl)c4)nc3c2)c1 [Compound 145] | – | > 10000 nM
20 | 61.7 nM | 87 °C | 58.9 nM | – | <5 | > 1000 nM | COc1cc(OC)cc(N(CCCNCC(F)(F)F)c2ccc3ncc(-c4ccnc(C(=O)NCCCN)c4)nc3c2)c1 [Compound 148] | – | > 10000 nM
21 | 35.5 nM | 115 °C | 102 nM | – | 5.32 | > 1000 nM | COc1cc(OC)cc(N(CCCO)c2ccc3ncc(-c4cccnc4F)nc3c2)c1 [Compound 149] | – | > 10000 nM
22 | 49 nM | 95 °C | 70.8 nM | – | 5.11 | 708 nM | COc1cc(OC)cc(N(CCCNCC(F)(F)F)c2ccc3ncc(-c4ccnc(C(=O)NCCCCCO)c4)nc3c2)c1 [Compound 150] | – | > 10000 nM
23 | 200 nM | 133 °C | 513 nM | – | 5.11 | > 1000 nM | COc1cc(OC)cc(N(CCO)c2ccc3ncc(-c4ccccc4CCO)nc3c2)c1 [Compound 151] | – | > 10000 nM
24 | 24 nM | 80 °C | 95.5 nM | – | 5.79 | 407 nM | COc1cc(OC)cc(N(CCO)c2ccc3ncc(-c4ccc(N5CCN(C(=O)OC(C)(C)C)CC5)cc4)nc3c2)c1 [Compound 156] | – | > 10000 nM
25 | 7.94 nM | 160 °C | 15.8 nM | – | ~6.14 | 355 nM | COc1cc(OC)cc(N(CCO)c2ccc3ncc(-c4ccc(N5CCN(C)CC5)nc4)nc3c2)c1 [Compound 163] | – | > 10000 nM
